In ChEMBL document CHEMBL3045546, “Synthesis and antimicrobial screening of 4-thiazolidinone and 2-azetidinone derivatives of piperazine” (2013):
In brackets after ≈: the same amount, converted by molar mass.

Assays:
Type in all cases: functional
Bacillus cereus = assay: Antimicrobial activity against Bacillus cereus ATCC 11778 assessed as growth inhibition by broth dilution method
[1] = test system: Staphylococcus epidermidis; assay: Antimicrobial activity against Staphylococcus epidermidis ATCC 12228 assessed as growth inhibition by broth dilution method
Staphylococcus aureus = assay: Antimicrobial activity against Staphylococcus aureus ATCC 25923 assessed as growth inhibition by broth dilution method
Staphylococcus hominis = assay: Antimicrobial activity against Staphylococcus hominis ATCC 27844 assessed as growth inhibition by broth dilution method
Aspergillus fumigatus = assay: Antimicrobial activity against Aspergillus fumigatus assessed as growth inhibition by broth dilution method
Pseudomonas aeruginosa = assay: Antimicrobial activity against Pseudomonas aeruginosa ATCC 10145 assessed as growth inhibition by broth dilution method
Proteus mirabilis = assay: Antimicrobial activity against Proteus mirabilis ATCC 49565 assessed as growth inhibition by broth dilution method
Bacillus subtilis = assay: Antimicrobial activity against Bacillus subtilis ATCC 6633 assessed as growth inhibition by broth dilution method
Klebsiella pneumoniae = assay: Antimicrobial activity against Klebsiella pneumoniae ATCC 13883 assessed as growth inhibition by broth dilution method
Microsporum canis = assay: Antimicrobial activity against Arthroderma otae ATCC 11622 assessed as growth inhibition by broth dilution method
Micrococcus luteus = assay: Antimicrobial activity against Micrococcus luteus ATCC 4698 assessed as growth inhibition by broth dilution method
Candida albicans = assay: Antimicrobial activity against Candida albicans ATCC 10231 assessed as growth inhibition by broth dilution method
Rhizoctonia solani = assay: Antimicrobial activity against Rhizoctonia solani ATCC 76131 assessed as growth inhibition by broth dilution method
Salmonella typhi = assay: Antimicrobial activity against Salmonella enterica subsp. enterica serovar Typhi ATCC 19430 assessed as growth inhibition by broth dilution method
Proteus vulgaris = assay: Antimicrobial activity against Proteus vulgaris ATCC 13315 assessed as growth inhibition by broth dilution method
Trichoderma viride = assay: Antimicrobial activity against Hypocrea rufa ATCC 52440 assessed as growth inhibition by broth dilution method
Bacillus pumilus = assay: Antimicrobial activity against Bacillus pumilus ATCC 14884 assessed as growth inhibition by broth dilution method
Alternaria alternata = assay: Antimicrobial activity against Alternaria alternata ATCC 66868 assessed as growth inhibition by broth dilution method
Aspergillus awamori = assay: Antimicrobial activity against Aspergillus awamori ATCC 22342 assessed as growth inhibition by broth dilution method
Trichophyton longifusum = assay: Antimicrobial activity against Trichophyton longifusum ATCC 22397 assessed as growth inhibition by broth dilution method
Aspergillus flavus = assay: Antimicrobial activity against Aspergillus flavus ATCC 15517 assessed as growth inhibition by broth dilution method
Escherichia coli = assay: Antimicrobial activity against Escherichia coli ATCC 25922 assessed as growth inhibition by broth dilution method
Aspergillus niger = assay: Antimicrobial activity against Aspergillus niger ATCC 9142 assessed as growth inhibition by broth dilution method
Fusarium solani = assay: Antimicrobial activity against Fusarium solani ATCC 38136 assessed as growth inhibition by broth dilution method

| Compound | MIC (Bacillus cereus) | MIC [1] | MIC (Staphylococcus aureus) | MIC (Staphylococcus hominis) | MIC (Aspergillus fumigatus) | MIC (Pseudomonas aeruginosa) | MIC (Proteus mirabilis) | MIC (Bacillus subtilis) | MIC (Klebsiella pneumoniae) | MIC (Microsporum canis) | MIC (Micrococcus luteus) | MIC (Candida albicans) | MIC (Rhizoctonia solani) | MIC (Salmonella typhi) | MIC (Proteus vulgaris) | MIC (Trichoderma viride) | MIC (Bacillus pumilus) | MIC (Alternaria alternata) | MIC (Aspergillus awamori) | MIC (Trichophyton longifusum) | other results |
| --- | --- | --- | --- | --- | --- | --- | --- | --- | --- | --- | --- | --- | --- | --- | --- | --- | --- | --- | --- | --- | --- |
| COc1cc(C2C(Cl)C(=O)N2CCN2CCN(C(=O)CCl)CC2)ccc1O (stereo not given) | 9.37 mg/L (≈ 22.5 µM) | 9.37 mg/L (≈ 22.5 µM) | 9.37 mg/L (≈ 22.5 µM) | 9.37 mg/L (≈ 22.5 µM) | 18.8 mg/L (≈ 45 µM) | 4.68 mg/L (≈ 11.2 µM) | 9.37 mg/L (≈ 22.5 µM) | 9.37 mg/L (≈ 22.5 µM) | 9.37 mg/L (≈ 22.5 µM) | 18.8 mg/L (≈ 45 µM) | 4.68 mg/L (≈ 11.2 µM) | 9.37 mg/L (≈ 22.5 µM) | 9.37 mg/L (≈ 22.5 µM) | 4.68 mg/L (≈ 11.2 µM) | 9.37 mg/L (≈ 22.5 µM) | 18.8 mg/L (≈ 45 µM) | 9.37 mg/L (≈ 22.5 µM) | 18.8 mg/L (≈ 45 µM) | 18.8 mg/L (≈ 45 µM) | 9.37 mg/L (≈ 22.5 µM) | MIC (Aspergillus flavus): 9.37 mg/L (≈ 22.5 µM); MIC (Escherichia coli): 9.37 mg/L (≈ 22.5 µM); MIC (Aspergillus niger): 18.8 mg/L (≈ 45 µM); MIC (Fusarium solani): 18.8 mg/L (≈ 45 µM) |
| COc1ccc(C2C(Cl)C(=O)N2CCN2CCN(C(=O)CCl)CC2)cc1 (stereo not given) | 9.37 mg/L (≈ 23.4 µM) | 4.68 mg/L (≈ 11.7 µM) | 9.37 mg/L (≈ 23.4 µM) | 4.68 mg/L (≈ 11.7 µM) | 9.37 mg/L (≈ 23.4 µM) | 9.37 mg/L (≈ 23.4 µM) | 9.37 mg/L (≈ 23.4 µM) | 9.37 mg/L (≈ 23.4 µM) | 9.37 mg/L (≈ 23.4 µM) | 18.8 mg/L (≈ 46.8 µM) | 9.37 mg/L (≈ 23.4 µM) | 18.8 mg/L (≈ 46.8 µM) | 9.37 mg/L (≈ 23.4 µM) | 9.37 mg/L (≈ 23.4 µM) | 9.37 mg/L (≈ 23.4 µM) | 18.8 mg/L (≈ 46.8 µM) | 9.37 mg/L (≈ 23.4 µM) | 9.37 mg/L (≈ 23.4 µM) | 9.37 mg/L (≈ 23.4 µM) | 9.37 mg/L (≈ 23.4 µM) | MIC (Aspergillus flavus): 9.37 mg/L (≈ 23.4 µM); MIC (Escherichia coli): 4.68 mg/L (≈ 11.7 µM); MIC (Aspergillus niger): 18.8 mg/L (≈ 46.8 µM); MIC (Fusarium solani): 18.8 mg/L (≈ 46.8 µM) |
| O=C(CCl)N1CCN(CCN2C(=O)C(Cl)C2c2ccco2)CC1 (stereo not given) | 75 mg/L (≈ 208 µM) | 75 mg/L (≈ 208 µM) | 150 mg/L (≈ 416 µM) | 75 mg/L (≈ 208 µM) | 300 mg/L (≈ 833 µM) | 150 mg/L (≈ 416 µM) | 150 mg/L (≈ 416 µM) | 150 mg/L (≈ 416 µM) | 75 mg/L (≈ 208 µM) | 150 mg/L (≈ 416 µM) | 150 mg/L (≈ 416 µM) | 300 mg/L (≈ 833 µM) | 300 mg/L (≈ 833 µM) | 150 mg/L (≈ 416 µM) | 75 mg/L (≈ 208 µM) | 300 mg/L (≈ 833 µM) | 75 mg/L (≈ 208 µM) | 150 mg/L (≈ 416 µM) | 150 mg/L (≈ 416 µM) | 300 mg/L (≈ 833 µM) | MIC (Aspergillus flavus): 300 mg/L (≈ 833 µM); MIC (Escherichia coli): 75 mg/L (≈ 208 µM); MIC (Aspergillus niger): 150 mg/L (≈ 416 µM); MIC (Fusarium solani): 150 mg/L (≈ 416 µM) |
| COc1ccc(C2SCC(=O)N2CCN2CCNCC2)cc1 (stereo not given) | 4.68 mg/L (≈ 14.6 µM) | 9.37 mg/L (≈ 29.1 µM) | 9.37 mg/L (≈ 29.1 µM) | 4.68 mg/L (≈ 14.6 µM) | 9.73 mg/L (≈ 30.3 µM) | 9.37 mg/L (≈ 29.1 µM) | 9.37 mg/L (≈ 29.1 µM) | 9.37 mg/L (≈ 29.1 µM) | 9.37 mg/L (≈ 29.1 µM) | 18.8 mg/L (≈ 58.3 µM) | 9.37 mg/L (≈ 29.1 µM) | 9.73 mg/L (≈ 30.3 µM) | 9.73 mg/L (≈ 30.3 µM) | 4.68 mg/L (≈ 14.6 µM) | 9.37 mg/L (≈ 29.1 µM) | 9.73 mg/L (≈ 30.3 µM) | 9.37 mg/L (≈ 29.1 µM) | 18.8 mg/L (≈ 58.3 µM) | 9.73 mg/L (≈ 30.3 µM) | 18.8 mg/L (≈ 58.3 µM) | MIC (Aspergillus flavus): 18.8 mg/L (≈ 58.3 µM); MIC (Escherichia coli): 9.37 mg/L (≈ 29.1 µM); MIC (Aspergillus niger): 18.8 mg/L (≈ 58.3 µM); MIC (Fusarium solani): 18.8 mg/L (≈ 58.3 µM) |
| O=C(O)c1cn(C2CC2)c2cc(N3CCNCC3)c(F)cc2c1=O [CIPROFLOXACIN] | 2.34 mg/L (≈ 7.06 µM) | 2.34 mg/L (≈ 7.06 µM) | 2.34 mg/L (≈ 7.06 µM) | 2.34 mg/L (≈ 7.06 µM) |  | 2.34 mg/L (≈ 7.06 µM) | 2.34 mg/L (≈ 7.06 µM) | 2.34 mg/L (≈ 7.06 µM) | 2.34 mg/L (≈ 7.06 µM) |  | 2.34 mg/L (≈ 7.06 µM) |  |  | 2.34 mg/L (≈ 7.06 µM) | 2.34 mg/L (≈ 7.06 µM) |  | 2.34 mg/L (≈ 7.06 µM) |  |  |  | MIC (Escherichia coli): 2.34 mg/L (≈ 7.06 µM) |
| Clc1ccccc1C(c1ccccc1)(c1ccccc1)n1ccnc1 [CLOTRIMAZOLE] |  |  |  |  | 4.68 mg/L (≈ 13.6 µM) |  |  |  |  | 4.68 mg/L (≈ 13.6 µM) |  | 2.34 mg/L (≈ 6.79 µM) | 2.34 mg/L (≈ 6.79 µM) |  |  | 2.34 mg/L (≈ 6.79 µM) |  | 1.17 mg/L (≈ 3.39 µM) | 4.68 mg/L (≈ 13.6 µM) | 4.68 mg/L (≈ 13.6 µM) | MIC (Aspergillus flavus): 2.34 mg/L (≈ 6.79 µM); MIC (Aspergillus niger): 2.34 mg/L (≈ 6.79 µM); MIC (Fusarium solani): 4.68 mg/L (≈ 13.6 µM) |
